Assay results published in PubChem BioAssay (NCI).
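Grown in 96-well plates, cells were treated for 48 hours with each compound at five concentrations. Insufficient inhibition: endpoint recorded as highest concentration tested. At the GI50, growth is halved. TGI: concentration producing complete growth inhibition.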

Legend:
Assay in all cases: inhibition of tumour cell growth, NCI panel, 48 h
A549 NSCLC = test system: A549 NSCLC
DMS 114 small cell lung = test system: DMS 114 small cell lung
DMS 273 small cell lung = test system: DMS 273 small cell lung
IGROV1 ovarian = test system: IGROV1 ovarian
K-562 leukemia = test system: K-562 leukemia
LOX IMVI melanoma = test system: LOX IMVI melanoma
NCI-H226 lung = test system: NCI-H226 lung
OVCAR-3 ovarian = test system: OVCAR-3 ovarian
OVCAR-8 ovarian = test system: OVCAR-8 ovarian
RPMI-8226 leukemia = test system: RPMI-8226 leukemia
SK-MEL-28 melanoma = test system: SK-MEL-28 melanoma
SNB-78 CNS = test system: SNB-78 CNS
UACC-62 melanoma = test system: UACC-62 melanoma
UO-31 renal = test system: UO-31 renal
DU-145 prostate = test system: DU-145 prostate
HS 578T breast = test system: HS 578T breast
MDA-MB-231 breast = test system: MDA-MB-231 breast
MDA-N = test system: MDA-N
T-47D breast = test system: T-47D breast

Compound | TGI (A549 NSCLC) [µM] | TGI (DMS 114 small cell lung) [µM] | TGI (DMS 273 small cell lung) [µM] | TGI (IGROV1 ovarian) [µM] | TGI (K-562 leukemia) [µM] | TGI (LOX IMVI melanoma) [µM] | TGI (NCI-H226 lung) [µM] | TGI (OVCAR-3 ovarian) [µM] | TGI (OVCAR-8 ovarian) [µM] | GI50 (RPMI-8226 leukemia) [µM] | TGI (RPMI-8226 leukemia) [µM] | TGI (SK-MEL-28 melanoma) [µM] | TGI (SNB-78 CNS) [µM] | TGI (UACC-62 melanoma) [µM] | TGI (UO-31 renal) [µM] | TGI (DU-145 prostate) [µM] | TGI (HS 578T breast) [µM] | TGI (MDA-MB-231 breast) [µM] | TGI (MDA-N) [µM] | TGI (T-47D breast) [µM]
[Cl-].[Rh+3].c1ccc(-c2ccnc3c2ccc2c(-c4ccccc4)ccnc23)cc1.c1ccc(-c2ccnc3c2ccc2c(-c4ccccc4)ccnc23)cc1.c1ccc(-c2ccnc3c2ccc2c(-c4ccccc4)ccnc23)cc1 | > 100 | 75 | 83.1 | > 100 | > 78.4 | > 100 | > 100 | > 100 | > 100 | 29.2 | > 100 | > 100 | > 100 | > 100 | > 100 | – | – | – | – | –
C/C=C(/C)C(=O)O[C@@H]1c2c(C)coc2C[C@H]2CC[C@H](O)[C@H](C)[C@]21C | – | – | – | > 100 | > 100 | > 100 | > 100 | 70.6 | > 100 | – | > 100 | > 100 | – | > 100 | > 100 | > 100 | > 100 | > 100 | > 100 | > 100
COC(=O)[C@@H]1c2cc3c(c(O)c2[C@@H](OC)C[C@@]1(C)O)C(=O)c1c(O)cc2c(c1C3=O)OC1O[C@@]2(C)[C@H](O)[C@@H](N(C)C)[C@@H]1O | 1.45 | 0.633 | 0.779 | 1.7 | 7.31 | – | 0.877 | 1.69 | 2.05 | – | > 150 | – | 4.54 | 0.534 | 3.12 | – | – | – | – | –
O=C(O)Cc1ccc(N2N=C(c3ccccc3)CC2=O)cc1 | – | – | – | > 100 | > 100 | – | > 100 | > 100 | > 100 | – | – | > 100 | – | > 100 | > 100 | > 100 | > 100 | > 100 | > 100 | > 100
C=C(C)C1Cc2c(cc(O)c3c(=O)c4ccccc4n(C)c23)O1 (stereo not drawn) | > 100 | > 100 | > 100 | – | – | 37.2 | > 100 | – | – | – | > 100 | > 100 | > 100 | – | – | – | – | – | – | –
CC(C)(C)OC(=O)C1=C(C(=O)OC(C)(C)C)SC2(S1)C(C(=O)OC(C)(C)C)=C(C(=O)OC(C)(C)C)Sc1c2ssc1=O | > 100 | – | – | > 100 | > 100 | > 100 | – | > 100 | > 100 | – | > 100 | > 100 | – | > 100 | > 100 | > 100 | > 100 | > 100 | > 100 | > 100
